# Measurements taken from PMC9519446, “Discovery of an Orally Active Benzoxaborole Prodrug Effective in the Treatment of Chagas Disease in Non-human Primates” (Nature microbiology, 2022).
# Several values for one entry are separate records, joined by “and”; a condition that tells them apart may be missing. Equal entries are not always repeated. Where two headings read alike, the source gives them in different places.
# Assays:
# [1] = tested on: tdTomato expressing T. cruzi (CL strain); assay: Rapid in vivo assay: footpad infection, single oral dose, fluorescence imaging 2 and 4 dpi (proliferation index);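 further: single oral dose of 50 mg/kg given at 2 dpi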; parameters: species or system C57BL/6 mice; conditions: Fig. 3a; individual footpads
# Protocol: Fluorescent intensity of the feet was measured at 2 dpi before compound administration and at 4 dpi in the Maestro in vivo imaging system equipped with the software Maestro 2.1.0 (CRi) as previously described. The proliferation index was estimated as PI=[(T4d – T2d)/(mUnt4d-mUnt2d)]*100; where T4d and T2d are the fluorescence intensity of the feet of the treated animals at days 4 and 2 post-infection respectively; mUnt4d and mUnt2d are the average fluorescence intensity of the feet of the untreated animals at 4 and 2 dpi respectively.
# [2] = tested on: T. cruzi extracellular amastigotes; assay: Extracellular amastigote assay (ATPlite luminescence, 48 hours); assay type: cell-based; conditions: Trypanosoma cruzi, extracellular amastigotes
# Protocol: (§1) The in vitro anti-T. cruzi amastiogote activity assay was performed and optimized based on the protocol described previously. The change in tdTomato fluorescence intensity was determined as a measurement of growth over 72 hours of culture. For assaying drug effects on extracellular amastigotes, trypomastigotes were collected from infected Vero cell cultures and converted in acidic media as previously described. Amastigotes (50,000/well) were incubated with 2-fold serial dilutions of compounds for 48 hours. The ATP production was used as an indication of growth in this case, and was measured by ATPlite Luminescence ATP Detection Assay System (PerkinElmer). Both fluorescence and luminescence were read using a BioTek Synergy Hybrid Multi-Mode reader equipped with the software Gene5 v 2.0 (BioTek). The dose-response curve was generated by […] analysis with GraphPad Prism v9.4.0 (GraphPad Software).
# [3] = tested on: T. cruzi intracellular amastigotes; assay: In vitro anti-T. cruzi intracellular amastigote growth inhibition assay (tdTomato fluorescence over 72 hours, Vero cells); assay type: cell-based, Trypanosoma cruzi; conditions: for activity at 0.00407 µM: [uM] -2.39 [sic]
# Protocol: as §1
# [4] = tested on: TcCBP KO T. cruzi intracellular amastigotes; assay: microbe, parasite or virus in culture; assay type: cell-based; conditions: Trypanosoma cruzi, read-out: TcCBP KO IC50
# Protocol: as §1
# The CBPs knockout was produced using ribonucleoprotein (RNP) complexes as previously described. Briefly, Brazil tdTomato strain epimastigotes were electroporated with RNP complexes containing SaCas9 and an sgRNA targeting CBP gene TcBrA4_0048170, plus a repair template containing stop codons in all three reading frames and the M13 sequence for use as a PCR anchor. The sgRNA targeted the ‘[…]” sequence. After 2 days of recovery, single-cell clones were derived by depositing epimastigotes into a 96-well plate at a density of 0.5 cell/well by using a MoFlo Astrios EQ cell sorter (Beckman Coulter). DNA isolation was performed for clones, and primer pair of 5’-[…]-3’ and 5’- […] -3’ was used for amplifying the wild type allele, while primer pair of M13-F: 5’- […] -3’ and 5’- […] -3’ was used for amplifying the mutant allele.
# T. cruzi Brazil strain = assay: Mouse cure assays (daily oral treatment, immunosuppression, qPCR of skeletal muscle, blood microscopy, hemoculture); assay type: in vivo, C57BL/6 mice; conditions: individual mice
# Protocol: Male or female C57BL/6 mice were intraperitoneally infected with 10^4 trypomastigotes of the Brazil strain. Mouse infection was confirmed at 25-30 dpi by detection of CD8^+ T cells specific against the T. cruzi TSKb20 peptide in blood. Compounds resuspended in 1% carboxymethyl cellulose and 0.1% Tween 80, were administered daily by gavage at the specified concentrations. In order to optimally detect persistent infection, immune responses in the mice were suppressed by intraperitoneal injection of four doses of cyclophosphamide every 2-3 days (200 mg/kg/day), beginning one week after the end of therapeutic treatment. At the end of the immunosuppression regimen, peripheral blood was checked under light microscope for parasites and cultured in LDNT media. Mouse skeletal muscle samples were obtained at the end of the immunosuppression and processed for T. cruzi-DNA detection by qPCR as previously described.
# [5] = tested on: CPSF3-OE T. cruzi intracellular amastigotes; assay: microbe, parasite or virus in culture; assay type: cell-based; conditions: Trypanosoma cruzi; for IC50: read-out: CPSF3-OE IC50, intracellular amastigotes; for activity at 0.1 µM / activity at 0.4 µM / activity at 0.7 µM / activity at 1 µM / activity at 1.3 µM / activity at 1.6 µM: 72 h, read-out: % of maximum, CPSF3-OE
# Protocol: as §1
# The CPSF3 gene was amplified using primers ‘[…]’ and ‘[…]’, and integrated into the pTrex vector [47] by NEBuilder HiFi DNA assembly (New England Biolabs). The construct of pTrex-CPSF was then transfected into Brazil tdTomato epimastigotes and selected by 60ug/ml blasticidin.
# To confirm the CPSF overexpression in the selected transfectants, RNA was extracted as previously described and converted to cDNA using SuperScript Reverse Transcriptase (Invitrogen). Quantitative PCR reactions were performed in triplicate on the C1000 Touch Bio-Rad CFX96 real-time PCR detection system for CPSF using primer sets CPSF-1 (5'-[…]-3' and 5'-[…]-3') and CPSF-2 (5'-[…]-3' and 5'-[…]-3') in both control and CPSF over-expressing parasites, and the expression level was normalized to tubulin which was amplified using primers: ‘[…]’ and ‘[…]’.
# T. cruzi = conditions: T. cruzi-infected NHPs; cited from earlier work
# [6] = 48 hours, Fig. 5f, Extended Data Fig. 4d, read-out: IC50 (nM) T. cruzi extra-
# [7] = Trypanosoma cruzi, Vero, intracellular T. cruzi, Fig. 5f, read-out: IC50 (nM) T. cruzi intra-
# [8] = Trypanosoma cruzi, Vero, 72 h, read-out: % of maximum, WT, single replicates
# [9] = Trypanosoma cruzi, Vero, read-out: WT IC50, WT intracellular amastigotes, control of CPSF3-OE comparison
# [10] = Trypanosoma cruzi, Vero, read-out: WT IC50, WT intracellular amastigotes, control of TcCBP KO comparison
# [11] = Trypanosoma cruzi, Vero, in vitro, Fig. 1a, Extended Data Fig. 1a, read-out: T. cruzi IC50
smiles,measurement,setting,value
O=C(Cn1ccnc1[N+](=O)[O-])NCc1ccccc1 [BNZ],Parasite proliferation index of footpads infected with tdTomato-expressing T. cruzi,[1],23.6 and 6.5 and 46.7 and 1.3 and 29.6 and 25.1 and 51.0 and 55.7 and -21.7 and -21.2
Cc1c(C(=O)N[C@H](C(=O)OCc2ccccc2)C(C)C)ccc2c1B(O)OC2 [AN11735],IC50,[2]; [6],1.2 nM
CC(C)C(NC(=O)c1ccc2c(c1C1CC1)B(O)OC2)C(=O)OCc1ccccc1 (stereo not shown) [AN14577],IC50,[3]; [7],> 1250 nM
same,IC50,[2]; [6],240 nM
Cc1c(C(=O)NC(C(=O)OCC2CCOC2)C(C)C)ccc2c1B(O)OC2 (stereo not shown) [AN16109],IC50,[4],2500 nM
same,Parasite equivalent/ 50 ng of DNA of skeletal muscle,"T. cruzi Brazil strain; Fig. 3c, mice treated for 20 days",0.11 Parasite equivalent/ 50 ng of DNA and 0.27 Parasite equivalent/ 50 ng of DNA and 0.0541 Parasite equivalent/ 50 ng of DNA and 0.0079 Parasite equivalent/ 50 ng of DNA and 0.12 Parasite equivalent/ 50 ng of DNA and 0.0367 Parasite equivalent/ 50 ng of DNA
same,Parasite equivalent/ 50 ng of DNA of skeletal muscle,"T. cruzi Brazil strain; Fig. 3e, mice treated for 40 days with 2.5 mg/kg, 2.5 mg/kg",0.223 Parasite equivalent/ 50 ng of DNA and 0.2345 Parasite equivalent/ 50 ng of DNA and 0.468 Parasite equivalent/ 50 ng of DNA and 0.01907 Parasite equivalent/ 50 ng of DNA and 0.1637 Parasite equivalent/ 50 ng of DNA and 1.455 Parasite equivalent/ 50 ng of DNA and 0.04407 Parasite equivalent/ 50 ng of DNA and 0.06524 Parasite equivalent/ 50 ng of DNA
same,IC50,[5],22.7 nM
same,activity at 0.00407 µM,[3]; [8],75%
same,IC50,[3]; [9],6.6 nM
same,IC50,[3]; [10],6.6 nM
same,IC50,[3]; [11],5 nM
same,% of maximum,"[3]; WT, [uM] 0.00 as printed, single replicates",0%
same,% of maximum,"[3]; WT, [uM] -1.91 as printed, single replicates",13%
same,Parasite proliferation index of footpads infected with tdTomato-expressing T. cruzi,[1],52.8 and 35.3 and 33.3 and 35.0 and 26.3 and 26.8 and -3.0 and 4.6 and 35.6 and 29.4
Cc1c(C(=O)N[C@H](C(=O)O)C(C)C)ccc2c1B(O)OC2 [AN14667],activity at 0.1 µM,"[5]; [uM] 0.10, single replicates",97%
same,activity at 0.4 µM,"[5]; [uM] 0.40 as printed, single replicates",102%
same,activity at 0.7 µM,"[5]; [uM] 0.70, single replicates",108%
same,activity at 1 µM,"[5]; [uM] 1.00, single replicates",89%
same,activity at 1.3 µM,"[5]; [uM] 1.30 [sic], single replicates",59%
same,activity at 1.6 µM,"[5]; [uM] 1.60 as printed, single replicates",27%
same,activity at 0.1 µM,[5]; concentration 0.10 [uM] as printed,97%
same,activity at 0.4 µM,[5]; concentration 0.40 [uM] as printed,102%
same,activity at 0.7 µM,[5]; concentration 0.70 [uM] as printed,108%
same,activity at 1 µM,[5]; concentration 1.00 [uM] as printed,89%
same,activity at 1.3 µM,[5]; concentration 1.30 [uM] as printed,59%
same,activity at 1.6 µM,[5]; concentration 1.60 [uM] as printed,27%
same,activity at 0.7 µM,"[3]; Trypanosoma cruzi, Vero, 72 h, read-out: % of maximum, WT, [uM] 0.70, single replicates",43%
same,activity at 1 µM,"[3]; Trypanosoma cruzi, Vero, 72 h, read-out: % of maximum, WT, [uM] 1.00, single replicates",0%
same,activity at 0.7 µM,"[3]; Trypanosoma cruzi, Vero, 72 h, read-out: % of maximum, WT, concentration 0.70 [uM] as printed",43%
same,activity at 0.1 µM,"[3]; Trypanosoma cruzi, Vero, 72 h, read-out: % of maximum, intracellular, [uM] 0.10",86%
same,activity at 0.4 µM,"[3]; Trypanosoma cruzi, Vero, 72 h, read-out: % of maximum, intracellular, [uM] 0.40",66%
same,activity at 0.7 µM,"[3]; Trypanosoma cruzi, Vero, 72 h, read-out: % of maximum, intracellular, [uM] 0.70",43%
same,activity at 1.6 µM,"[3]; Trypanosoma cruzi, Vero, 72 h, read-out: % of maximum, intracellular, [uM] 1.60",0%
same,IC50,[3]; [11],5720 nM
same,IC50,"[3]; Trypanosoma cruzi, Vero, intracellular amastigotes, Fig. 2a, read-out: Intracellular IC50",3600 nM
same,reduced activity relative to ester prodrug,[3]; both intra- and extracellular amastigotes,~ 1000 fold
same,% of maximum,"[3]; intracellular, [uM] 1.60",0%
same,IC50,"[2]; Fig. 2a, read-out: Extracellular IC50",3900 nM
"Cc1c(C(=O)NC(C(=O)OCc2ccc(F)cc2)C(C)C)ccc2c1B(O)OC2 (stereo not shown) [AN11736, 4-fluorobenzyll-valinate amide benzoxaborole]",IC50,[4],618 nM
same,IC50,[5],6.5 nM
same,activity at 0.00407 µM,[3]; [8],46%
same,IC50,[3]; [9],3.2 nM
same,IC50,[3]; [10],3.2 nM
same,% of maximum,"[3]; WT, [uM] -1.43 as printed, single replicates",-1% and 1%
Cc1c(C(=O)N[C@H](C(=O)OC2CCOCC2)C(C)C)ccc2c1B(O)OC2 [AN15572],IC50,[3]; [11],11 nM
CC(C)c1c(C(=O)NC(C(=O)OCc2ccccc2)C(C)C)ccc2c1B(O)OC2 (stereo not shown) [AN14630],IC50,[3]; [7],> 1250 nM
same,IC50,[2]; [6],13 nM
CC(C)[C@H](NC(=O)c1ccc2c(c1)B(O)OC2)C(=O)OCc1ccccc1 [AN10443],IC50,[3]; [11],670 nM
same,IC50,[2]; [6],13 nM
CC[C@@H]([C@H](C)O)n1ncn(-c2ccc(N3CCN(c4ccc(OC[C@@H]5CO[C@@](Cn6cncn6)(c6ccc(F)cc6F)C5)cc4)CC3)cc2)c1=O [posaconazole],failures in treatment trial,T. cruzi,100%
CC(C)[C@H](NC(=O)c1ccc2c(c1F)B(O)OC2)C(=O)OCc1ccccc1 [AN11622],IC50,[3]; [7],> 1250 nM
same,IC50,[2]; [6],37 nM
CCc1c(C(=O)N[C@H](C(=O)OCc2ccccc2)C(C)C)ccc2c1B(O)OC2 [AN14557],IC50,[3]; [7],37 nM
same,IC50,[2]; [6],1.5 nM
